Each structure is given as a SMILES string. Where “and” joins values, the source holds several entries; their conditions need not be identical. Equal values may be shown once. Inconclusive results and toxic doses are left out. Starred links: 1 amine or outer side, 2 acyl side, 3 side chain; linkers in the order of their positions; H or OH if unused. Positions of bridges follow the written chain, without caps; N, C: chain ends. Non-standard residues stand in square brackets, D forms with d. Residues, ends and D or L forms follow the SMILES beside them. Chains are numbered I, II in the order given. Actinocin(9to1) = Cc1c2oc3c(C)ccc(C(=O)[*:1])c3nc-2c(C(=O)[*:2])c(N)c1=O; aThr = C[C@H](O)[C@H](N)C(=O)O; NMeV = CN[C@H](C(=O)O)C(C)C; Sar = CNCC(=O)O

This experiment relates to P335 leukemia ip, BDF1 mice, survival T/C %. The experiment is described as follows: NCI In Vivo Anticancer Drug Screen. Data for tumor model P335 Leukemia (intraperitoneal) in B6D2F1 (BDF1) mice. Particulars: endpoint: mean survival time, schedule: Q01DX Z (ip), higher = longer survival. The protocol: The antitumor activity of compounds was measured in mice bearing transplantable tumors. Survival or tumor size were measured and the results are expressed as the measurement made in the treated group (T) divided by the measurement made in the vehicle treated control group (C). The tumor model used in this assay is P335 Leukemia (intraperitoneal) in B6D2F1 (BDF1) mice

[1] abbreviates: dose: 6.2 mg/kg/injection, vehicle: water.
[2] abbreviates: dose: 8.0 mg/kg/injection, vehicle: carboxymethylcellulose (CMC).
[3] abbreviates: dose: 16.0 mg/kg/injection, vehicle: carboxymethylcellulose (CMC).
[4] abbreviates: dose: 0.31 mg/kg/injection, vehicle: carboxymethylcellulose (CMC).
[5] abbreviates: dose: 1.25 mg/kg/injection, vehicle: carboxymethylcellulose (CMC).
The mark [6] stands for this setting: dose: 31.0 mg/kg/injection, vehicle: carboxymethylcellulose (CMC).
[7] abbreviates: dose: 125.0 mg/kg/injection, vehicle: carboxymethylcellulose (CMC).
[8] abbreviates: dose: 2.0 mg/kg/injection, vehicle: carboxymethylcellulose (CMC).

For the compound `N[C@@H](Cc1ccc(N(CCCl)CCCl)cc1)C(=O)O`, the T/C (dose: 1.25 mg/kg/injection, vehicle: saline) is 168 % of control; the T/C (dose: 2.5 mg/kg/injection, vehicle: saline) is 169 % of control and 195 % of control; the T/C (dose: 5.0 mg/kg/injection, vehicle: saline) is 106 % of control.
With `CN(C)c1ccc(/C=C\c2ccnc3ccccc23)cc1`, the T/C is, setting by setting: (dose: 0.8 mg/kg/injection, vehicle: water) 100 % of control; (dose: 1.6 mg/kg/injection, vehicle: water) 98 % of control; (dose: 3.1 mg/kg/injection, vehicle: water) 102 % of control; under setting [1], 109 % of control.
Consider `CN(C)CC(=O)c1ccc(O)c(O)c1`, for which the T/C reads like this: (dose: 15.6 mg/kg/injection, vehicle: saline) 103 % of control; (dose: 31.25 mg/kg/injection, vehicle: saline) 109 % of control; (dose: 62.5 mg/kg/injection, vehicle: saline) 113 % of control; (dose: 125.0 mg/kg/injection, vehicle: saline) 109 % of control and 119 % of control; (dose: 500.0 mg/kg/injection, vehicle: saline) 89 % of control.
Take `O=C(Nc1ccc(C2=NCCCN2)cc1)c1ccc(NC(=O)c2ccc(C3=NCCCN3)cc2)cc1`: the T/C runs as follows: (dose: 4.0 mg/kg/injection, vehicle: carboxymethylcellulose (CMC)) 168 % of control; under setting [2], 176 % of control; under setting [3], 108 % of control.
In the case of `Nc1ncnc2c1ccn2C1OC(CO)C(O)C1O` (centres undefined), the T/C runs as follows: (dose: 0.08 mg/kg/injection, vehicle: carboxymethylcellulose (CMC)) 110 % of control; (dose: 0.16 mg/kg/injection, vehicle: carboxymethylcellulose (CMC)) 97 % of control; under setting [4], 95 % of control; (dose: 0.32 mg/kg/injection, vehicle: carboxymethylcellulose (CMC)) 121 % of control; under setting [5], 93 % of control.
In the case of `OCC1OC(n2cnc3c(=S)nc[nH]c32)C(O)C1O` (centres undefined), the T/C under setting [3] was 87 % of control and 90 % of control; the T/C under setting [6] is 109 % of control and 110 % of control; the T/C (dose: 62.5 mg/kg/injection, vehicle: carboxymethylcellulose (CMC)) was 98 % of control; the T/C under setting [7] was 93 % of control.
Consider `S=P(N1CCOCC1)(N1CC1)N1CC1`, for which the T/C (dose: 12.5 mg/kg/injection, vehicle: carboxymethylcellulose (CMC)) was 101 % of control and the T/C (dose: 25.0 mg/kg/injection, vehicle: carboxymethylcellulose (CMC)) was 93 % of control.
As to `O=P1(N(CCCl)CCCl)NCCCO1` (centres undefined), the T/C is, setting by setting: (dose: 6.25 mg/kg/injection, vehicle: saline) 113 % of control; (dose: 200.0 mg/kg/injection, vehicle: saline) 107 % of control.
For `NC(N)=Nc1nc2ccccc2o1`, the T/C by setting is: under setting [8], 92 % of control; under setting [2], 90 % of control; under setting [3], 90 % of control; under setting [6], 94 % of control; (dose: 63.0 mg/kg/injection, vehicle: carboxymethylcellulose (CMC)) 94 % of control; under setting [7], 86 % of control.
Consider `Cc1c2oc3c(C)ccc(C(=O)N[C@@H]4C(=O)N[C@H](C(C)C)C(=O)N5CCC[C@H]5C(=O)N(C)CC(=O)N(C)[C@@H](C(C)C)C(=O)O[C@H]4C)c3nc-2c(C(=O)N[C@@H]2C(=O)N[C@H](C(C)C)C(=O)N3CCC[C@H]3C(=O)N(C)CC(=O)N(C)[C@@H](C(C)C)C(=O)O[C@H]2C)c(N)c1=O` (I: [aThr][dV]P[Sar][NMeV] / II: [aThr][dV]P[Sar][NMeV]; ester I:1-I:C, II:1-II:C; linker I:N-II:N via Actinocin(9to1)), for which the T/C is 106 % of control (dose: 0.8 micrograms/kg/injection, vehicle: saline); 106 % of control (dose: 1.6 micrograms/kg/injection, vehicle: saline); 96 % of control (dose: 2.5 micrograms/kg/injection, vehicle: saline); 102 % of control (dose: 4.9 micrograms/kg/injection, vehicle: saline); 120 % of control (dose: 6.4 micrograms/kg/injection, vehicle: saline); 98 % of control (dose: 9.8 micrograms/kg/injection, vehicle: saline). For the same compound, the T/C is 88 % of control (dose: 19.5 micrograms/kg/injection, vehicle: saline); 122 % of control (dose: 38.9 micrograms/kg/injection, vehicle: saline); 115 % of control (dose: 51.2 micrograms/kg/injection, vehicle: saline); 103 % of control (dose: 102.4 micrograms/kg/injection, vehicle: saline).
On to `N#[N+]c1cnc([O-])[nH]c1=O`, for which the T/C under setting [4] is 96 % of control; the T/C (dose: 0.62 mg/kg/injection, vehicle: carboxymethylcellulose (CMC)) was 123 % of control; the T/C under setting [5] is 103 % of control; the T/C (dose: 5.0 mg/kg/injection, vehicle: carboxymethylcellulose (CMC)) was 124 % of control; the T/C (dose: 10.0 mg/kg/injection, vehicle: carboxymethylcellulose (CMC)) is 103 % of control and 104 % of control and 110 % of control.
Take `CN(C)c1ccc(/C=C/c2ccnc3ccccc23)cc1`: the T/C was 94 % of control (dose: 1.6 mg/kg/injection, vehicle: carboxymethylcellulose (CMC)); 89 % of control (dose: 3.1 mg/kg/injection, vehicle: carboxymethylcellulose (CMC)); 100 % of control under setting [1]; 90 % of control and 105 % of control (dose: 6.25 mg/kg/injection, vehicle: carboxymethylcellulose (CMC)); 95 % of control (dose: 12.5 mg/kg/injection, vehicle: water); 92 % of control (dose: 25.0 mg/kg/injection, vehicle: water). Further, where the note is “dose: 50.0 mg/kg/injection, vehicle: carboxymethylcellulose (CMC)”, the T/C is 118 % of control.
Take `Nc1nc(=S)c2[nH]cnc2[nH]1`: the T/C (dose: 0.12 mg/kg/injection, vehicle: carboxymethylcellulose (CMC)) was 92 % of control; the T/C (dose: 0.25 mg/kg/injection, vehicle: carboxymethylcellulose (CMC)) was 95 % of control; the T/C (dose: 0.5 mg/kg/injection, vehicle: carboxymethylcellulose (CMC)) is 95 % of control; the T/C (dose: 1.0 mg/kg/injection, vehicle: carboxymethylcellulose (CMC)) was 101 % of control; the T/C under setting [8] is 95 % of control.
On to `N=[N+]=CC(=O)OCC(N)C(=O)O` (centres undefined), for which the T/C by setting is: (dose: 1.18 mg/kg/injection, vehicle: saline) 101 % of control; (dose: 2.35 mg/kg/injection, vehicle: saline) 122 % of control; (dose: 4.69 mg/kg/injection, vehicle: saline) 122 % of control; (dose: 25.0 mg/kg/injection, vehicle: saline) 106 % of control; (dose: 50.0 mg/kg/injection, vehicle: saline) 94 % of control.
Take `COc1cc2c(c(OC)c1OC)-c1ccc(OC)c(=O)cc1[C@@H](NC(C)=O)CC2`: the T/C was 104 % of control (dose: 63.0 micrograms/kg/injection, vehicle: saline); 101 % of control (dose: 125.0 micrograms/kg/injection, vehicle: saline); 104 % of control (dose: 250.0 micrograms/kg/injection, vehicle: saline).

Source of the values: PubChem BioAssay AID224 (DTP/NCI, 2004).
